# Several values for one entry are separate records, joined by “and”; a condition that tells them apart may be missing. Identical values can stand only once. Like-named read-outs stand apart in the source and are kept apart here.
# Columns and labels:
# [1] = target: Human CB2R (Cannabanoid receptor 2) (Homo sapiens (Human), UniProt P34972); test: CB-2 in vitro cAMP assay (HTRF); type: cell-based; settings: mean where tested more than once
# How it was run: (§1)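 HEK-293 cells stably transfected with the human receptor, plated overnight at 4E5 cells/mL. Compounds given as 1/3 serial dilutions from 10 mM DMSO stocks. Stimulation in HBSS/5 mM HEPES/0.1% BSA with 0.5 mM IBMX and forskolin (1.5 μM in buffer); cAMP measured by competitive HTRF immunoassay (d2-cAMP, cryptate anti-cAMP) against a cAMP standard curve.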
# [2] = target: Human CB1R (Cannabanoid receptor 1) (Homo sapiens (Human), UniProt P21554); test: CB-1 in vitro cAMP assay (HTRF); type: cell-based; settings: mean where tested more than once
# How it was run: as §1
# [3] = Mouse Fast PK/BBB (plasma and brain concentration); type: in vivo, Male C57bl/6j mice; settings: for concentration at 1 h / concentration at 4 h: male, C57bl/6j
# Experimental: Male Sprague Dawley rats were ordered from Charles River (225-250 gm upon arrival). They were fed standard chow diet (Purina 5001) and housed 2 per cage. Male C57bl/6j mice were ordered from Charles River at 22-25 g and housed 3 per cage. They were fed standard chow (Purina 5001). All animals were housed in a temperature-controlled room with 12-hour light/dark cycle. Animals were given food and water ad libitum, except as noted.
# […] Test compounds were administered by oral gavage (5 ml kg^−1).
# Male C57bl/6j mice were dosed with test compounds at 30 mg/kg. Plasma was collected via retro-orbital bleeding at 1 hr and 4 hrs after dosing. Whole brain without cerebellum was collected at 4 hrs after dosing. Wet brain weight was recorded before freezing. Brains were homogenized in saline and sent for analysis for determination of concentration of test compound.
# Tables 6A and 6B below present results for representative compounds of the present invention, tested according to the procedure as described above. Each compound was tested in three animals (N=3) and administered PO at 20 mg/kg or 30 mg/kg.
# hCB1-CHO-K1 membranes = hCB1-CHO-K1 membranes (Homo sapiens (Human), UniProt P21554); test: CB-1 membrane binding assay ([3H] CP 55,940 displacement); settings: [3H] CP 55,940 0.4 nM
# Experimental: Into Greiner V bottom polypropylene plates, hCB1-CHO-K1 membranes (2 μg/well final concentration) in assay buffer (50 mM Tris-HCl pH 7.4, 5 mM MgCl2 and 0.5 mg/ml (0.05%) Ultra fatty acid free BSA) were dispensed. Membranes were purchased from Perkin Elmer. Test compounds were then added to each well and then [^3H] CP 55, 940 (0.4 nM final well concentration) in assay buffer (50 mM Tris-HCl pH 7.4, 5 mM MgCl2 and 0.5 mg/ml (0.05%) Ultra fatty acid free BSA) was added. Samples were mixed and incubated for 90 min at 30° C. in the Greiner V Bottom Polypropylene plate. After incubation, assay reagents were transferred to a blocked 384 well polypropylene filter plates. The binding reaction was stopped by filtration and washed seven times with ice cold rinse buffer. Filter plates were then dried overnight at room temperature. The next day, plate bottoms were sealed with plate tape and 15 μl MicroScint 20 was added to each well. Plates were incubated for 2h and radioactivity was measured by Topcount.
# Total Binding levels were achieved by combining membrane, DMSO, and [^3H] CP-55,940 (also known as 5-(1,1-dimethylheptyl)-2-[(1R,2R,5R)-5-hydroxy-2-(3-hydroxypropyl)cyclohexyl]-phenol). […]
# IC50 data was calculated using raw CPM values. […] IC50 values were fit appropriately and calculated using the following equation: […]
# [4] = plasma, PO 30 mg/kg, 1 hr, N=3, read-out: PLASMA Mean Conc. ± Std. Dev
# [5] = PO 20 mg/kg, 10% PEG400 and 10% Solutol in water, 1 hr, individual animals
# [6] = PO 20 mg/kg, 10% PEG400 and 10% Solutol in water, 4 hr, individual animals
# [7] = PO 30 mg/kg, 5% NMP and 20% HPβCD ~pH8 in water, 1 hr, individual animals
# [8] = PO 30 mg/kg, 5% NMP and 20% HPβCD ~pH8 in water, 4 hr, individual animals
# Human CB2R (Cannabanoid receptor 2), sequence (P34972 whole entry): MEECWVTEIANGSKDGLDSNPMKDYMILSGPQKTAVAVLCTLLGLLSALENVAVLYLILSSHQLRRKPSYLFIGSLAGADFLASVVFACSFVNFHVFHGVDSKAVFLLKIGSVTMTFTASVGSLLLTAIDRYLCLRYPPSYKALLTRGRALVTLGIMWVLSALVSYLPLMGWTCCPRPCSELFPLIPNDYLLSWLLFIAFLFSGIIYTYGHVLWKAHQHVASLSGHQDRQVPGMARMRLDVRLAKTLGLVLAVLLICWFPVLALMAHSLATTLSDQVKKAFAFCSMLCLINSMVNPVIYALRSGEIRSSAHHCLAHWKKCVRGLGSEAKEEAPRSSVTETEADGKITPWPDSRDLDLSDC
# Human CB1R (Cannabanoid receptor 1), sequence (P21554 whole entry): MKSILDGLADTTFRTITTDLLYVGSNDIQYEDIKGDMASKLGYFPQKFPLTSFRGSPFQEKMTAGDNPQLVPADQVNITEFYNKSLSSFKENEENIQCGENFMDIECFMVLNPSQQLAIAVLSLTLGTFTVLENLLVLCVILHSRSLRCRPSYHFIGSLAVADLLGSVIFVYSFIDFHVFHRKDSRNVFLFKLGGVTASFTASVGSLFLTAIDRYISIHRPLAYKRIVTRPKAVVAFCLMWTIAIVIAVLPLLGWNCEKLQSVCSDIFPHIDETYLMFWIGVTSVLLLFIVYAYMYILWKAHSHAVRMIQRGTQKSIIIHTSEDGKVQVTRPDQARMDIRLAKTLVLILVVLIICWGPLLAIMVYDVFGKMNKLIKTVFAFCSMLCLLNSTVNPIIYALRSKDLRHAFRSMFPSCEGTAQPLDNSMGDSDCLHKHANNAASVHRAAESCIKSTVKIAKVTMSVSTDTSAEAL
# hCB1-CHO-K1 membranes, sequence (P21554 whole entry): as above
EC50 [1] [nM],EC50 [2] [nM],SMILES,further results
3920,10,"N=C(N)c1ccc(S(=O)(=O)N2CCC(Nc3ncnc4ccc(C(c5ccc(Cl)cc5)c5ccc(Cl)cc5)cc34)CC2)cc1 [Compound #47, 4-((4-((6-(bis(4-chlorophenyl)methyl)quinazolin-4-yl)amino)piperidin-1-yl)sulfonyl)benzimidamide]","BRAIN Mean Conc. ± Std. Dev ([3]; PO 30 mg/kg, 1 hr, N=3): BLOQ ± NA; BRAIN Mean Conc. ± Std. Dev ([3]; PO 30 mg/kg, 4 hr, N=3): BLOQ ± NA; PLASMA Mean Conc. ± Std. Dev ([3]; PO 30 mg/kg, 4 hr, N=3): BLOQ ± NA; concentration at 1 h [3, 4]: 7.83 ± 1.08 ng/mL"
4460,21,"OCC(CO)(CO)COc1nc(NCc2cccc(C(F)(F)F)c2)c2cc(C(c3ccc(Cl)cc3)c3ccc(Cl)cc3)ccc2n1 [Compound #54, 2-(((6-(bis(4-chlorophenyl)methyl)-4-((3-(trifluoromethyl)benzyl)amino)quinazolin-2-yl)oxy)methyl)-2-(hydroxymethyl)propane-1,3-diol]","BRAIN Mean Conc. ± Std. Dev ([3]; PO 30 mg/kg, 1 hr, N=3): BLOQ ± NA; BRAIN Mean Conc. ± Std. Dev ([3]; PO 30 mg/kg, 4 hr, N=3): BLOQ ± NA; concentration at 1 h [3, 4]: 946 ± 99.4 ng/mL; concentration at 4 h ([3]; plasma, PO 30 mg/kg, 4 hr, N=3, read-out: PLASMA Mean Conc. ± Std. Dev): 1300 ± 155 ng/mL"
> 10000,11,"FC(F)(F)c1ccc(CNc2ncnc3ccc(C(c4ccc(Cl)cc4)c4ccc(Cl)cc4)cc23)cc1 [compound 138, 6-(bis(4-chlorophenyl)methyl)-N-(4-(trifluoromethyl)benzyl)quinazolin-4-amine]","concentration at 1 h ([3]; brain, PO 20 mg/kg, 1 hr, N=3, read-out: BRAIN Mean Conc. ± Std. Dev): 61.7 ± 22.6 ng/mL; concentration at 4 h ([3]; brain, PO 20 mg/kg, 4 hr, N=3, read-out: BRAIN Mean Conc. ± Std. Dev): 192 ± 14 ng/mL; concentration at 1 h ([3]; plasma, PO 20 mg/kg, 1 hr, N=3, read-out: PLASMA Mean Conc. ± Std. Dev): 3300 ± 537 ng/mL; concentration at 4 h ([3]; plasma, PO 20 mg/kg, 4 hr, N=3, read-out: PLASMA Mean Conc. ± Std. Dev): 3790 ± 743 ng/mL"
323,14,"O=C(O)c1ccc(S(=O)(=O)N2CCC(Nc3ncnc4ccc(C(c5ccc(Cl)cc5)c5ccc(Cl)cc5)cc34)CC2)cc1 [Compound #93, 4-((4-((6-(bis(4-chlorophenyl)methyl)quinazolin-4-yl)amino)piperidin-1-yl)sulfonyl)benzoic acid]","BRAIN Range of Conc. [3, 5]: ND, ND, ND; PLASMA Range of Conc. [3, 5]: ND, BLOQ, ND; BRAIN Range of Conc. [3, 6]: ND, ND, ND; PLASMA Range of Conc. [3, 6]: 17.155 ng/mL and 6.427 ng/mL; BRAIN Range of Conc. [3, 7]: BLOQ, BLOQ,; PLASMA Range of Conc. [3, 7]: 280 ng/mL and 9.10 ng/mL and 9.00 ng/mL; BRAIN Range of Conc. [3, 8]: BLOQ, BLOQ,; PLASMA Range of Conc. [3, 8]: BLOQ, BLOQ,; concentration at 4 h ([3]; plasma, PO 20 mg/kg, 10% PEG400 and 10% Solutol in water, 4 hr, individual animals, read-out: PLASMA Range of Conc.): 16.1 ng/mL"
280,23,"COc1cc(S(=O)(=O)N2CCC(Nc3ncnc4ccc(C(c5ccc(Cl)cc5)c5ccc(Cl)cc5)cc34)CC2)ccc1C(=O)O [Compound #22, 4-((4-((6-(bis(4-chlorophenyl)methyl)quinazolin-4-yl)amino)piperidin-1-yl)sulfonyl)-2-methoxybenzoic acid]",–
196,11,"N#CC1(c2ccccc2)CCC(Nc2ncnc3ccc(C(c4ccc(Cl)cc4)c4ccc(Cl)cc4)cc23)CC1 (centres unmarked) [Compound #118, 4-((6-(bis(4-chlorophenyl)methyl)quinazolin-4-yl)amino)-1-phenylcyclohexanecarbonitrile]",–
> 10000,580,"O=C(O)c1ccc(CN2CCC(Nc3ncnc4ccc(C(c5ccc(Cl)cc5)c5ccc(Cl)cc5)cc34)CC2)cc1 [compound 44, 4-((4-(6-(bis(4-chlorophenyl)methyl)quinazolin-4-ylamino)piperidin-1-yl)methyl)benzoic acid]",–
1720,30,"FC(F)(F)c1ccc(CNc2ncnc3ccc(C(c4ccc(Cl)cc4)c4ccc(Cl)cc4)cc23)nc1 [compound 127, 6-(bis(4-chlorophenyl)methyl)-N-((5-(trifluoromethyl)pyridin-2-yl)methyl)quinazolin-4-amine]",–
5010,32,"CCS(=O)(=O)N1CCC(Nc2ncnc3ccc(C(c4ccc(Cl)cc4)c4ccc(Cl)cc4)cc23)CC1 [compound 141, 6-(bis(4-chlorophenyl)methyl)-N-(1-(ethylsulfonyl)piperidin-4-yl) quinazolin-4-amine]",–
> 10000,68,"O=S(=O)(NC1CCN(c2ncnc3ccc(C(c4ccc(Cl)cc4)c4ccc(Cl)cc4)cc23)CC1)C(F)(F)F [Compound #104, N-(1-(6-(bis(4-chlorophenyl)methyl)quinazolin-4-yl)piperidin-4-yl)-1,1,1-trifluoromethanesulfonamide]",–
2450,24,"CS(=O)(=O)N1CCC(Nc2ncnc3ccc(C(c4ccc(Cl)cc4)c4ccc(Cl)cc4)cc23)CC1 [Compound #140, 6-(bis(4-chlorophenyl)methyl)-N-(1-(methylsulfonyl)piperidin-4-yl) quinazolin-4-amine]",IC50 (hCB1-CHO-K1 membranes): 74 nM
